Measurements published in patent publication USRE38169E1, “Hyperstabilizing antisense nucleic acid binding agents” (priority 1993, dated 2003).

How the values were obtained:
[1] = test system: DNA sense (SEQ ID NO. 1) / DNA-MP antisense duplex (PO-MP); experiment: Binding of drug to duplex (NACS column, A365/A260); parameters: species or system equine infectious anemia retrovirus; conditions: for Final D/N (CC-1065/nucleotide) Bound to Duplex: PO-MP
Description: (§1) Oligodeoxyribonucleotides were obtained by chemical synthesis through standard techniques on an automated synthesizer located in the Department of Veterinary Microbiology and Parasitology at Louisiana State University. Antisense MP and PS oligonucleotides were obtained from commercial sources, as was synthetic sense RNA. Poly(rA) was obtained from Sigma Chemical Co. CC-1065 was obtained from the Upjohn Company. Oligonucleotides (0.075 μmol-P each) were mixed in 0.36 ml 0.01 M Na cacodylate buffer, pH 7.2, with CC-1065 in dimethyl formamide (0.04 ml), or with dimethylformamide only. (Note that “μmol-P” denotes μmoles of phosphate; i.e., μmoles of nucleotide bases, rather than of oligonucleotides per se.) Incubations of complementary strands, with or without drug, were carried out at 37° C. for 4 hr. In the initial experiments, unbound drug was separated from nucleotide duplexes by ethanol precipitation. Equivalent results were obtained by trapping the oligonucleotides and CC-1065 on NACS-52 columns, and washing first with low-salt buffer and then with buffer containing 1M NaCl. Unbound CC-1065 was completely retained on the column. […] Samples prepared in this manner could be directly used for determination of binding of the drug to the nucleic acid (as measured by the A365/A260 ratio), with the extinction of CC-1065 absorbance at 365 nm taken as 48,000, and the extinction of the nucleic acid absorption at 260 nm based on its composition. Similar approaches were used with the drug U-71,184, with an assumed extinction of 32,000 at 365 nm.
(§2) When methyl phosphonate and synthetic RNA were used, the purities of the crude oligonucleotides were taken to be about 30%, based on the data sheet prepared by the supplier. (The remainder comprised primarily truncated sequences.) Appropriate excess amounts of these agents were included in the reactions to ensure helix formation. The corresponding sense or antisense oligonucleotides were maintained at 0.075 μmol-P in the reaction. […] Unpurified materials were used in these preliminary studies because of the relatively high cost of purified oligoribonucleotides. The majority of the contributions to A260 for these samples should be due to material that was not duplexed.
(§3) Table 1 summarizes binding data obtained from incubations of CC-1065 with nucleotides at greater than stoichiometric levels; the levels used in these experiments were 1 drug molecule/10 nucleotide residues, which is equivalent to 4 drug molecules/20-mer duplex. […] There seemed to be no difference in drug binding between antisense oligonucleotides with a PO and those with a PS backbone. Again, the 5′-AGTTA-3′ sequence on the sense strand was presumably the primary target, and the 3′-AAGTA-5′ on the antisense probe was presumably the secondary target.

[2] = test system: DNA sense (SEQ ID NO. 1) / DNA-PO antisense (SEQ ID NO. 2) duplex (PO-PO); experiment: Binding of drug to duplex (NACS column, A365/A260); parameters: species or system equine infectious anemia retrovirus; conditions: for Final D/N (CC-1065/nucleotide) Bound to Duplex: PO-PO
Description: as §1, §2, §3

[3] = test system: DNA sense (SEQ ID NO. 1) / DNA-PS antisense duplex (PO-PS); experiment: Binding of drug to duplex (NACS column, A365/A260); parameters: species or system equine infectious anemia retrovirus; conditions: for Final D/N (CC-1065/nucleotide) Bound to Duplex: PO-PS
Description: as §1, §2, §3

[4] = test system: RNA sense / DNA-PO antisense duplex; experiment: Binding of drug to duplex (NACS column); parameters: species or system equine infectious anemia retrovirus; conditions: saturation; initial CC-1065/nucleotide 0.1; 37° C., 4 hr
Description: (§4) Oligodeoxyribonucleotides were obtained by chemical synthesis through standard techniques on an automated synthesizer located in the Department of Veterinary Microbiology and Parasitology at Louisiana State University. Antisense MP and PS oligonucleotides were obtained from commercial sources, as was synthetic sense RNA. Poly(rA) was obtained from Sigma Chemical Co. CC-1065 was obtained from the Upjohn Company. Oligonucleotides (0.075 μmol-P each) were mixed in 0.36 ml 0.01 M Na cacodylate buffer, pH 7.2, with CC-1065 in dimethyl formamide (0.04 ml), or with dimethylformamide only. (Note that “μmol-P” denotes μmoles of phosphate; i.e., μmoles of nucleotide bases, rather than of oligonucleotides per se.) Incubations of complementary strands, with or without drug, were carried out at 37° C. for 4 hr. In the initial experiments, unbound drug was separated from nucleotide duplexes by ethanol precipitation. Equivalent results were obtained by trapping the oligonucleotides and CC-1065 on NACS-52 columns, and washing first with low-salt buffer and then with buffer containing 1M NaCl. […] Samples prepared in this manner could be directly used for determination of binding of the drug to the nucleic acid (as measured by the A365/A260 ratio), with the extinction of CC-1065 absorbance at 365 nm taken as 48,000, and the extinction of the nucleic acid absorption at 260 nm based on its composition. […]

[5] = test system: RNA sense / DNA-PS antisense duplex; experiment: Binding of drug to duplex (NACS column); parameters: species or system equine infectious anemia retrovirus; conditions: saturation; initial CC-1065/nucleotide 0.1; 37° C., 4 hr
Description: as §4

Salmon Sperm DNA = experiment: Binding of drug to duplex (NACS column); conditions: saturation; initial CC-1065/nucleotide 0.1; 37° C., 4 hr
Description: as §4

Oligo dA - Oligo dT = experiment: Duplex strand separation temperature (Tm); format: binding
Description: Samples for determining Tm were also obtained by the above procedures. […] Thus the effects of this agent on Tm were carried out with Distamycin in solution with the duplexes tested.
Tm's were determined on a Gilford 2400 Spectrophotometer set at 260 nm, with a 4-chamber Peltier-based temperature controller. Temperature was ramped linearly at 0.5° C./min. Absorbance data were acquired with a 12-bit A/D converter, and data were processed with Lotus 123W and SigmaPlot software. Tm values were determined from the plots as the midpoint of the thermal transitions.

[6] = test system: mRNA of a fragment of the env gene of EIAV; experiment: In vitro translation (wheat-germ extract, 35S-methionine); format: biochemical; conditions: 1.95 μg mRNA; antisense about 3 times mRNA sense; CC-1065 3 times antisense; scintillation spectrometry
Description: The in vitro translation studies were performed as follows. A fragment of DNA from the env gene of EIAV was transcribed with an SP-6 polymerase kit, and the resulting mRNA (approximately 600 bases long) was capped and isolated. The transcribed fragment included the target sequence 5′-[…]-3′ (SEQ ID NO. 3) (the CC-1065 binding site is underlined). The corresponding antisense sequence (using normal phosphodiester chemistry) was 5′-[…]-3′ (SEQ ID NO. 4). Translation was performed with a wheat-germ extract (Promega) in the presence of ^35S-methionine. The mRNA's were divided into approximately 2 μg aliquots, and treated according to the protocols listed for Table 3 below. Treated mRNA was separated from small molecules (such as DMSO and CC-1065) with a Sephadex 50-based NICK column. Translation was carried out in 25 μl of buffer containing the wheat germ translation system; the isolated mRNA; amino acids, including the labelled methionine; and RNAsin, an inhibitor of RNase. The proteins produced were divided into two aliquots. One aliquot was fractionated by SDS-PAGE, followed by autoradiography; and the other was analyzed by scintillation spectrometry. The concentrations of antisense oligomers and CC-1065 in the free-solution chemistries were relatively high compared to the sense target, to optimize duplex formation and drug binding. […] The following pairs were different at the P<0.05 level by Student's t-test (unpaired analysis): 1,5; 2,5; 3,4; 3,5; 4,5.

poly(dA)-poly(dT) = conditions: reported, cited from earlier work
[7] = saturation, initial CC-1065/nucleotide 0.1, 37° C., 4 hr

**Q.** Which results are given for `COc1c(O)c2c(c3cc(C(=O)N4CCc5c4c(O)c(OC)c4[nH]c(C(=O)N6CC7CC78C6=CC(=O)c6[nH]cc(C)c68)cc54)[nH]c13)CCN2C(N)=O` (centres unmarked) [CC-1065]?
**A.** Estimate of drug bound per duplex by titration with a range of MP ([1]; MP antisense oligonucleotides): # With MP antisense oligonucleotides, titration with a range of MP gave an estimate of 1 molecule bound per duplex. Precipitation with NaCl and EtOH gave similar results, but recoveries were lower. Single-strand components did not bind CC-1065.; Binding for MP antisense sequences ([1]; MP antisense sequences): about 1 drug molecule/duplex; Final D/N (CC-1065/nucleotide) Bound to Duplex ([1]; Initial D/N 0.025): 0.016 ± 0.0008; Final D/N (CC-1065/nucleotide) Bound to Duplex ([1]; Initial D/N 0.04, single determination): 0.019^4; Final D/N (CC-1065/nucleotide) Bound to Duplex ([1]; Initial D/N 0.10): 0.031 ± 0.001; Approx. No. CC-1065 Bound/20 Base Pairs [1, 7]: ~1; Final D/N (CC-1065/nucleotide) Bound to Duplex ([2]; Initial D/N 0.01): 0.009 ± 0.0004; Final D/N (CC-1065/nucleotide) Bound to Duplex ([2]; Initial D/N 0.025): 0.021 ± 0.001; Final D/N (CC-1065/nucleotide) Bound to Duplex ([2]; Initial D/N 0.04): 0.030 ± 0.0004; Final D/N (CC-1065/nucleotide) Bound to Duplex ([2]; Initial D/N 0.065): 0.049 ± 0.001; Final D/N (CC-1065/nucleotide) Bound to Duplex ([2]; Initial D/N 0.10): 0.053 ± 0.002; Approx. No. CC-1065 Bound/20 Base Pairs ([2]; saturation, initial CC-1065/nucleotide 0.1 (4 drug molecules per duplex), 37° C., 4 hr): ~2; Final D/N (CC-1065/nucleotide) Bound to Duplex ([3]; Initial D/N 0.01): 0.010 ± 0; Final D/N (CC-1065/nucleotide) Bound to Duplex ([3]; Initial D/N 0.025): 0.024 ± 0.0005; Final D/N (CC-1065/nucleotide) Bound to Duplex ([3]; Initial D/N 0.04): 0.032 ± 0.001; Final D/N (CC-1065/nucleotide) Bound to Duplex ([3]; Initial D/N 0.065): 0.047 ± 0.0005; Final D/N (CC-1065/nucleotide) Bound to Duplex ([3]; Initial D/N 0.10): 0.049 ± 0; Approx. No. CC-1065 Bound/20 Base Pairs [3, 7]: ~2; Approx. No. CC-1065 Bound/20 Base Pairs [4]: ~1; Approx. No. CC-1065 Bound/20 Base Pairs [5]: ~1; Approx. No. CC-1065 Bound/20 Base Pairs (Salmon Sperm DNA): ~2; Tm, lower transition of biphasic curve (Oligo dA - Oligo dT; CC-1065 initial D/N = 0.025, regions lacking CC-1065): 50 °C; Tm, higher transition of biphasic curve (Oligo dA - Oligo dT; CC-1065 initial D/N = 0.025, regions with CC-1065): 85 °C; Tm (Oligo dA - Oligo dT; CC-1065 initial D/N = 0.1, minimum Tm estimate): ≥ 85.5 ± 0.7^4,5 °C; Duplex Strand Separation Temperature (Oligo dA - Oligo dT; Oligo dA / Oligo dT, drug-bound duplex (Table 6)): ≥ 85.5 ± 0.7^4; Tm Elevation (Oligo dA - Oligo dT; dA-dT, highest level of binding obtained): 28.5 °C; DPM S-35 ± standard error [6]: 133.040 ± 13.227 DPM; Tm (poly(dA)-poly(dT); CC-1065 bound): ~100 °C; Increase in Tm (poly(dA)-poly(dT); under the conditions of the experiment): over 30 °C
